Experimental data from US8099262B2, “Estimation of clinical cut-offs” (priority 2004, dated 2012).

Tests used:
Assay type in all cases: in vivo
[1] = test system: HIV; conditions: for Test Data BCO Odds Ratio / Validation Data BCO Odds Ratio: biological cutoffs; for Test Data CCO Odds Ratio / Validation Data CCO Odds Ratio: clinical cutoffs
Source text: Further factors which may be taken into account when validating the model are the odds ratios determined using clinical cutoffs compared to those determined using biological cutoffs. These ratios represent the odds of being a responder in the group that is labeled resistant by the cutoffs divided by the odds of being a responder in the group that is labeled sensitive by the cutoffs. In this way it is possible to evaluate how well the cutoffs perform on a drug by drug basis. The further away that the odds ratio is from 1, the stronger the correlation between the resistance class and clinical outcome. The odds ratio as specified above yield numbers smaller than 1 as the odds of being a responder should be smaller in the higher resistance class. Put another way, the probability of response will decrease as the resistance increases. Additionally, if the odds ratio for the CCO is smaller than the odds ratio for the BCO, it can be concluded that the CCO is stronger correlated with clinical outcome and therefore gives a better prediction than the BCO.
(§1) A logistic regression model may be used to determine the odds ratio. The model used is the same as the logistic regression model described above except that the fold change in the model is replaced by the resistance class. The coefficient for the resistance class that is obtained from the model is the log (odds ratio). The advantage of using this model is that the odds ratio estimates can be adjusted for the baseline viral load and the cPSS score of the background regimen.
The columns headed CCO Odds Ratio and BCO Odds Ratio represent the odds of being a responder in the group that is labeled resistance by the cutoffs divided by the odds of being a responder in the group that is labeled sensitive by the cutoffs. For example, if there are four non-responders and one responder in the resistant group, and four responders and two non-responders in the sensitive group, the odds of being a responder in the resistant group is 1:4=0.25 and the odds of being a responder in the sensitive group is 4:2=2. […] The further away that the odds ratio is from 1, the stronger the correlation between the resistance class and clinical outcome.
The separation in groups (resistance/sensitive) can be done based on clinical cutoffs or biological cutoffs. This means that odds ratios based on clinical cutoffs (CCO) and odds ratios based on biological cutoffs (BCO) can be compared. If the odds ratio for the CCO is smaller than the odds ratio for the BCO, it can be concluded that the CCO gives a better prediction than the BCO.
as §1, with “In practice, a” for “A”, “is” for “may be”, “similar to” for “the same as the”, “earlier” for “above”, “regimen. […] In this case, a larger odds ratio indicates a stronger correlation with clinical outcome.” for “regimen.”

[2] = test system: HIV; set-up: Linear Regression Higher CO / Linear Regression Lower CO: unit not given here; conditions: for VIROLOGIC RESPONSE Baseline FC for 80% REDUCTION of response (upper cutoff) / VIROLOGIC RESPONSE 20% REDUCTION (fold change, preliminary VirtualPhenotype Clinical Cutoff) / VIROLOGIC RESPONSE 80% REDUCTION (fold change, preliminary VirtualPhenotype Clinical Cutoff): preliminary linear regression analysis; for VIROLOGIC RESPONSE 20% REDUCTION (fold change, preliminary VirtualPhenotype Clinical Cutoff) / VIROLOGIC RESPONSE 80% REDUCTION (fold change, preliminary VirtualPhenotype Clinical Cutoff): virologic response at 8 weeks; for Linear Regression Higher CO / Linear Regression Lower CO: Definition 2, Overall (whole population)
Source text: Databases of studies for patients with tenofovir containing regimens and consisting of patient baseline demographic characteristics, clinical outcome results with viral load and resistance data (Fold change), were retrieved and remapped according to a common structure allowing a meta-analysis. The structure consisted of baseline sequence, viral load data set, viral load measurements and sampling dates (for example viral load within 3 months of starting new regimen and viral load assessment 8 and/or 24 weeks after beginning new regimen), CD4+ data set which contains CD4+ counts and sampling dates, resistance data set containing the fold changes to different antivirals and sampling dates; patient data set with patient information such as age, gender, race, treatment history; treatment data set with drug regimens, start and stop dates, doses, formulations, frequency of intake, regimen changes after resistance tests. The structure of such a clinical data base can be seen in FIG. 1a.
The viral load response data includes censored (<400 copies/ml) values. Parameters of the underlying uncensored distribution were estimated by maximum likelihood estimation in SAS (proc lifereg). The viral load response data are corrected for baseline viral load and cPSS.
(§2) The models applied were linear regression, logistic regression, and a classification tree. These models also took into account effects of the concomitant HIV drugs (PSS), baseline viral load (Baseline Log(V1)i) and, optionally, treatment history in order to avoid bias introduced by imbalances of important characteristics. From the models, a prediction of clinical outcome could be made at different levels of the baseline fold change resistance.
In the linear regression model, the proposed equation was the following: LogVL dropi=β0+β1*Baseline Log(V1)i+β2*PSSi+β3*(1/FC)i+ξi where i represented the patient, β0 the intercept, β1, β2 and β3 coefficients indicated the increase in log viral load drop per unit increase of respectively the baseline log VL, the number of sensitive drugs in the background regimen and the inverse of the baseline fold change. ξi was a random error term indicating the deviation of the patient from the value predicted by the model. Interactions between all the factors were evaluated and other baseline characteristics, i.e treatment history, were added if relevant.
When viral load results under the detection limits are obtained, biases could be introduced if the detection limit values are considered when calculating viral load drops and using those in the linear regression model. To avoid this, censoring needed to be taken into account and therefore the PROC LIFEREG facility in the SAS package was employed.
Clinical responses were predicted in the models developed in previous step 2. […] In order to determine the fold changes at which clinically relevant diminished clinical responses can be observed, three definitions of clinical cut-offs were considered:
(§3) The maximum effect was defined as the treatment effect at fold change 1, and the minimum effect was defined as the treatment effect at a very high fold change (i.e. when the curve reached a plateau). The effect range was then the difference between the maximum effect and the minimum effect.

[3] = test system: HIV; set-up: key to Modelled Lower Cutoff & Confidence Interval / Modelled Upper Cutoff & Confidence Interval: fold change (FC) matching VL drop at 20% and 80% loss of activity; conditions: for Modelled Lower Cutoff & Confidence Interval / Modelled Upper Cutoff & Confidence Interval: preferred embodiment of linear regression
Source text: In a preferred embodiment of the linear regression model, more factors are included in order to obtain a more refined prediction of viral load response. These factors include for example a sensitivity score per drug class in addition to the overall sensitivity score of the background treatment (cPSS), previous exposure to the drug (naïve (Yes/No), naïve to PIs, naïve to NRTI's, etc. . . . ). Furthermore, in the preferred embodiment, the fold change is transformed before inserting the figures into the model. The transformation to the fold change comprises a power-transformation ranging from FC^−3 to FC^1. In addition, a quadratic term in cPSS is preferably added.
The NRTI[naïve] value represents whether the patient is naïve to nucleoside RT inhibitors. If yes, value=1, if no, value=0. The PSS[NRTI} represents the phenotypic sensitivity score for NRTIs, i.e the number of active NRTIs in the background regimen for the patient.
Stage 3: Determine Fold change equivalent to VL drop at 20% and 80% loss of activity by inserting values for VL drop into the above equation and calculating FC. […]

[4] = test system: HIV; assay: Logistic regression model of probability of success/failure as a function of baseline fold change resistance (clinical cut-offs); conditions: Definition 2; for lower cutoff, logistic regression / upper cutoff, logistic regression: log baseline VL/background PSS of 5/0
Source text: In such a method, Prob of success is preferably calculated by performing a logistic regression analysis using data from a clinical response dataset, wherein Prob of success is modelled according to the following equation: […]
as §2, with “The clinical outcome results (drop in viral load and response rate) were modelled as a function of baseline fold change (FC) as determined by virtual phenotype (see WO01/79540 and WO02/33402; also http://www.vircolab.com). The models” for “The models”
In the logistic regression, the proposed equation was the following: […]
However, by binning the viral load into successes and failures, part of the information of the continuous variable viral load is lost. Estimates are also corrected for covariates as for linear regression.
as §3
The lower and higher cutoffs are defined as the fold change associated with an expected 20% and 80% decrease respectively of the reference activity of the drug within the regimen.

[5] = Subgroup 1: PSS = 2, baseline Log (VL) = 4
[6] = Subgroup 3: PSS = 2, baseline Log (VL) = 5
[7] = Definition 1, log baseline viral load of 5, no active drugs in addition
[8] = Log(BaselineVL)=4, cPSS=2, PSS[NRTI]=1, NRTI[naïve]=0
[9] = definition 2, Log(BaselineVL)=4, reference fold changes 0.9 and 3, cPSS=2, PSS[NRTI]=1, NRTI[naïve]=0

| Molecule | Test Data BCO Odds Ratio [1] | Test Data CCO Odds Ratio [1] | Validation Data BCO Odds Ratio [1] | Validation Data CCO Odds Ratio [1] | VIROLOGIC RESPONSE Baseline FC for 80% REDUCTION of response (upper cutoff) ([2]; definition 2) | VIROLOGIC RESPONSE 20% REDUCTION (fold change, preliminary VirtualPhenotype Clinical Cutoff) [2] | VIROLOGIC RESPONSE 80% REDUCTION (fold change, preliminary VirtualPhenotype Clinical Cutoff) [2] | Modelled Lower Cutoff & Confidence Interval [3] | Modelled Upper Cutoff & Confidence Interval [3] | clinical cutoff for 80% reduced response (upper clinical cutoff) ([2]; definition 2, after 8 weeks) | also measured |
| --- | --- | --- | --- | --- | --- | --- | --- | --- | --- | --- | --- |
| Indinavir/r [IDV/r] | 0.122 | 0.027 | 0.038 | 0.012 | 25 | 3.5 | 25 | 4.1 | 21.2 | – | – |
| Lopinavir/r [LPV/r] | 0.240 | 0.074 | 0.277 | 0.002 | 56 | 6.9 | 56 | 10.3 | 61.6 | – | Logistic Regression Higher CO [4, 5]: 64; Logistic Regression Lower CO [4, 5]: 11; Logistic Regression Higher CO [4, 6]: 58; Logistic Regression Lower CO [4, 6]: 9; lower cutoff, logistic regression [4]: 10; upper cutoff, logistic regression [4]: 60; Linear Regression Higher CO [2]: 69; Linear Regression Lower CO [2]: 8 |
| amprenavir/r [APV/r] | 0.053 | 0.005 | – | – | 6.8 | 1.5 | 6.8 | 0.9 | 6.5 | 6.8 | clinical cutoff for 20% reduced response (lower clinical cutoff) ([2]; definition 2, after 8 weeks): 1.5 |
| Saquinavir/r [SQV/r] | 0.249 | 0.165 | 0.080 | 0.054 | 12 | 1.6 | 12 | 1.1 | 12.0 | – | Logistic Regression Higher CO [4, 5]: 13.2; Logistic Regression Lower CO [4, 5]: 1.7; lower cutoff, logistic regression [4]: 1.7; upper cutoff, logistic regression [4]: 12.9; Linear Regression Higher CO [2]: 12.3; Linear Regression Lower CO [2]: 1.6 |
| CC(C)CN(C[C@@H](O)[C@H](Cc1ccccc1)NC(=O)O[C@H]1CCOC1)S(=O)(=O)c1ccc(N)cc1 [APV, amprenavir] | – | – | – | – | – | – | – | – | – | 3.4 | – |
| Cc1cn([C@H]2C=C[C@@H](CO)O2)c(=O)[nH]c1=O [D4T, stavudine] | – | – | – | – | – | – | – | – | – | – | fold change at predicted viral load drop of −0.2 logs [2, 7]: 4.0; fold change at predicted viral load drop of −0.6 logs [2, 7]: 2.6; predicted viral load drop for any fold change ([2]; Definition 1, log baseline viral load of 5, two active drugs in addition): more than 0.6 log copies/mL; Fold change equivalent to VL drop at 20% loss of activity [3, 8]: 1.08; Fold change equivalent to VL drop at 80% loss of activity [3, 8]: 2.18; VL drop when drug has lost 20% of its activity [3, 8]: −2.76; VL drop when drug has lost 80% of its activity [3, 8]: −2.21; modelled lower clinical cutoff (CCO) [3, 9]: 1.1; modelled upper clinical cutoff (CCO) [3, 9]: 2.2; VL drop at the lower reference FC (drug is fully active) ([3]; lower reference fold change=0.9, Log(BaselineVL)=4, cPSS=2, PSS[NRTI]=1, NRTI[naïve]=0): −2.94; VL drop at the upper reference FC (minimal activity of the drug) ([3]; upper reference fold change=3, Log(BaselineVL)=4, cPSS=2, PSS[NRTI]=1, NRTI[naïve]=0): −2.03 |
| Cc1ccnc2c1NC(=O)c1cccnc1N2C1CC1 [NVP, neviripine] | 0.290 | 0.282 | 0.054 | 0.054 | – | – | – | 1.5 | 3.2 | – | – |
| CC(C)(C)NC(=O)[C@@H]1CN(Cc2cccnc2)CCN1C[C@@H](O)C[C@@H](Cc1ccccc1)C(=O)N[C@H]1c2ccccc2C[C@H]1O [IDV, indinavir] | – | – | – | – | – | – | – | – | – | 3.4 | – |
